What follows are compounds tested against T1, HIV Protease (Human immunodeficiency virus type 1 group M subtype B, UniProt P04585) (assay: Inhibition of microbial expressed HIV protease (peptide substrate cleavage, HPLC of products)). Details: protease expressed in Eschericia coli, pH 5.5, 30° C., 1 hour.
T1 construct: the protease expressed in Eschericia coli; made in house; host or cells: Escherichia coli
Format: biochemical
Experimental: Assay for Inhibition of Microbial Expressed HIV Protease
Inhibition studies of the reaction of the protease expressed in Eschericia coli with a peptide substrate [Val-Ser-Gln-Asn-(betanapthyl)Ala-Pro-Ile-Val, 0.5 mg/mL at the time the reaction is initiated] were in 50 mM Na acetate, pH 5.5, at 30° C. for 1 hour. Various concentrations of inhibitor in 1.0 μl DMSO were added to 25 μl of the peptide solution in water. The reaction is initiated by the addition of 15 μl of 0.33 nM protease (0.11 ng) in a solution of 0.133M Na acetate pH 5.5 and 0.1% bovine serum albumin. The reaction was quenched with 160 μl of 5% phosphoric acid. Products of the reaction were separated by HPLC (VYDAC wide pore 5 cm C-18 reverse phase, acetonitrile gradient, 0.1% phosphoric acid). The extent of inhibition of the reaction was determined from the peak heights of the products.

Structure (SMILES)	IC50
O=C(N[C@H]1c2ccccc2C[C@H]1O)[C@H](Cc1ccccc1)C[C@H](O)CNC(=O)[C@H]1[C@H](C(=O)NCCc2ccccc2)[C@@H]2C=C[C@H]1C2 [A]	0.055 nM
CC(C)(C)NC(=O)[C@H]1[C@H](C(=O)NC[C@@H](O)C[C@@H](Cc2ccccc2)C(=O)N[C@H]2c3ccccc3C[C@H]2O)[C@H]2C=C[C@@H]1C2 [B]	82.8 nM
O=C(N[C@H]1c2ccccc2C[C@H]1O)[C@H](Cc1ccccc1)C[C@H](O)CNC(=O)[C@H]1[C@H](C(=O)N(Cc2ccccc2)Cc2ccccc2)[C@@H]2C=C[C@H]1C2 [C]	0.025 nM

Reference: US5811462A, “HIV Protease inhibitors useful for the treatment of AIDS” (Merck & Co., Inc., priority 1997, dated 1998)
